Our source for the IC50 and EC50 values is ChEMBL document CHEMBL1201862, “PubChem BioAssay data set” (2004).

Assay [1] addresses T1, Sentrin-specific protease 7 (Homo sapiens, UniProt Q9BQF6).
T1 sequence (Q9BQF6 whole entry): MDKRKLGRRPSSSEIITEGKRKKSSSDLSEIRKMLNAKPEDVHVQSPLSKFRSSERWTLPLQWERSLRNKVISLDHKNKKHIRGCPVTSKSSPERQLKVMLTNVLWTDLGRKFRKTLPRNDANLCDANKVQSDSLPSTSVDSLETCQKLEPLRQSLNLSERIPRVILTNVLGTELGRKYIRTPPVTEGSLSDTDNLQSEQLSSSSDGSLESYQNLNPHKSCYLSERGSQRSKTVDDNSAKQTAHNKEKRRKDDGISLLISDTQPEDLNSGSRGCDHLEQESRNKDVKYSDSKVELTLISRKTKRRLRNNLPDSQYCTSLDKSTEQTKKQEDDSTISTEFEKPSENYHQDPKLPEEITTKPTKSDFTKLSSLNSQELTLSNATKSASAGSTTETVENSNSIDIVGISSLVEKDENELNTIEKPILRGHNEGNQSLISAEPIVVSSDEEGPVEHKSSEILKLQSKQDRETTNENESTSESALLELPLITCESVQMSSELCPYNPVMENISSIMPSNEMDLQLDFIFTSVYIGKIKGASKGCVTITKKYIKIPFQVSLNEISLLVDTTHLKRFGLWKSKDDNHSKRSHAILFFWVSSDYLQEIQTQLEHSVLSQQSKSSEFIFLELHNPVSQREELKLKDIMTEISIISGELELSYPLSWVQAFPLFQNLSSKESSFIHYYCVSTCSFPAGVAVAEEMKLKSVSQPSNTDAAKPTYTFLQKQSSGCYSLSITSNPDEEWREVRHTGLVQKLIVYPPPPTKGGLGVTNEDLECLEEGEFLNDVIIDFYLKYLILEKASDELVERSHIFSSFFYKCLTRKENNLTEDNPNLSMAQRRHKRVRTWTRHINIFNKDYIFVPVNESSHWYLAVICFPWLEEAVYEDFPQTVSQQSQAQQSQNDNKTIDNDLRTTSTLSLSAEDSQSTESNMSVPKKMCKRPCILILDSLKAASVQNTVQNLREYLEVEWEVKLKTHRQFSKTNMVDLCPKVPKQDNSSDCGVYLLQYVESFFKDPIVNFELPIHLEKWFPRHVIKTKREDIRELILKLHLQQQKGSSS
Type of assay: functional.

Assay [2] has as its target Tyrosyl-DNA phosphodiesterase 2 (Homo sapiens, UniProt O95551). The assay can be described thus: potency against TDP2 phosphodiesterase activity – biochemical, epi absorbance, IC50, dose response (AID 743297).
Assay [3] addresses T2, Caspase-3 (Homo sapiens, UniProt P42574).
T2 sequence (P42574 whole entry): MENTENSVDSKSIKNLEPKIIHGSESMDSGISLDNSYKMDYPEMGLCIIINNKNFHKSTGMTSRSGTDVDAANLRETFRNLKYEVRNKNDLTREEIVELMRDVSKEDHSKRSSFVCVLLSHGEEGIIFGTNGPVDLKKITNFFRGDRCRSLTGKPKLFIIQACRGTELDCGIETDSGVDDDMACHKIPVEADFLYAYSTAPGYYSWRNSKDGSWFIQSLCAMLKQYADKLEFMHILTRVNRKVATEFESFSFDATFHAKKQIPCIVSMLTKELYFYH
Type of assay: functional.

Assay [4] deals with T3, Sentrin-specific protease 8 (Homo sapiens, UniProt Q96LD8).
T3 sequence (Q96LD8 whole entry): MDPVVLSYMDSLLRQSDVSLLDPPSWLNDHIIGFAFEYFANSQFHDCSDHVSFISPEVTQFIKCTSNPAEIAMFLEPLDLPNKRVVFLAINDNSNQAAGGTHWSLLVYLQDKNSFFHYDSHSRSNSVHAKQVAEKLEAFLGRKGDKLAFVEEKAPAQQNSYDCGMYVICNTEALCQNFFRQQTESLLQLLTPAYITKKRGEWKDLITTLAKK
In kind it is functional.

For assay [5], the target named is T4, Sentrin-specific protease 6 (Homo sapiens, UniProt Q9GZR1).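 Further: Luminescence-based dose-response confirmatory assay of SENP6 inhibition, following up an ultra-high-throughput screen.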
T4 sequence (Q9GZR1 whole entry): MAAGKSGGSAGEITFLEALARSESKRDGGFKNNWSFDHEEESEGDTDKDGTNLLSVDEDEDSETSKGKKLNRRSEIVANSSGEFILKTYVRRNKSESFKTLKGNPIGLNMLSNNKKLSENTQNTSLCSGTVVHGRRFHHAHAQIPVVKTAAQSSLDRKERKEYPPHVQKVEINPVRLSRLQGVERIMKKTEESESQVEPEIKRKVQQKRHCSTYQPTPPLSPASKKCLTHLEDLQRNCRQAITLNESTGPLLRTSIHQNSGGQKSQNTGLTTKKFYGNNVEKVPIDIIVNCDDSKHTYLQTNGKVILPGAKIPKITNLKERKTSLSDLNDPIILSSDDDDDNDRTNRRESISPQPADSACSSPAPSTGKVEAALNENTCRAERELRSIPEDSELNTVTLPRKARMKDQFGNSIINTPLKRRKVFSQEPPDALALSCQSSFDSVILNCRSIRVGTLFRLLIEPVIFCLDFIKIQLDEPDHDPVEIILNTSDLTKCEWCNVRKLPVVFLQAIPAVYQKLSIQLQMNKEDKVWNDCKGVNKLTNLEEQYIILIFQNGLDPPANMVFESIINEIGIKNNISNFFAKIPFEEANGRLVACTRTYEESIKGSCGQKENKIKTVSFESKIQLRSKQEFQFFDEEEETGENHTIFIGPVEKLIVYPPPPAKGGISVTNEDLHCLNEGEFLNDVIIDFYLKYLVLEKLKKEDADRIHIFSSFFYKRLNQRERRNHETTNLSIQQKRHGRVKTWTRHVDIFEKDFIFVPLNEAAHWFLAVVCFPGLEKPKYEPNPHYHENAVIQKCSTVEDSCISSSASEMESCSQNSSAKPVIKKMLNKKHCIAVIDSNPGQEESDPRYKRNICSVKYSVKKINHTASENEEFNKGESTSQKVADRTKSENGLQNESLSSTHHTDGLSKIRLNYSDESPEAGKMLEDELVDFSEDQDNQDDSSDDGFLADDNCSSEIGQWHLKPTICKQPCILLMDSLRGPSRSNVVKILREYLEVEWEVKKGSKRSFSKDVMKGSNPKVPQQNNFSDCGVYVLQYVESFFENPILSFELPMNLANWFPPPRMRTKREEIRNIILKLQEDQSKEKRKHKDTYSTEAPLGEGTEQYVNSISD
In kind it is functional.

In assay [6] the test system is Streptococcus. The experiment in a line: GAS UMAA2166 growth inhibition – luminescence, BacTiterGlo, counter-screen for streptokinase expression inhibitor project, dose response (AID 1915).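 Further: potency for reduction of bacterial viability or growth.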 Type of assay: functional, organism-based. For orientation: Counterscreens check selectivity or assay interference.

Calls of active or inactive are those of the source. For most assays here, no stated cut-off is given here; in the data, actives have a measured IC50 and inactives only a lower limit. Some results are limits rather than exact numbers.

Chain of Tyrosyl-DNA phosphodiesterase 2 (O95551 whole entry): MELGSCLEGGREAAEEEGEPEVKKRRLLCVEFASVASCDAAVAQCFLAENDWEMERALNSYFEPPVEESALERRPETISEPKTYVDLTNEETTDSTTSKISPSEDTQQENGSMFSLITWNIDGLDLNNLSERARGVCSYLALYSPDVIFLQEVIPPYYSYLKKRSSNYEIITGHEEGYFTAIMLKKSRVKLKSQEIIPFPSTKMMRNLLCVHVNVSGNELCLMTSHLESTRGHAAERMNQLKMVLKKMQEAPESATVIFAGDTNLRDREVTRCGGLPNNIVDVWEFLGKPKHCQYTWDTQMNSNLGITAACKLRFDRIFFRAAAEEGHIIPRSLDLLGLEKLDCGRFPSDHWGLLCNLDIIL

One may read the IC50 as the concentration needed to halve the response being measured. As a reminder, the EC50 is the concentration needed to bring the measured effect to its halfway point. With `Clc1ccc(C2=CSC3=Nc4cccc5cccc(c45)N23)cc1`, the IC50 in assay [1] is 5.65 µM (active); in assay [2], > 128 µM (inactive); in assay [3] it was 7.93 µM (active); in assay [4], 2.04 µM (active); in assay [5], 1.89 µM (active). Further, the EC50 in assay [6] was 17.1 µM (active).
